The source of these data is PMC8078842 (PLoS Neglected Tropical Diseases, 2021).

This assay concerns the target T1, Oxidase, MAO-A-Peripheral (Rattus norvegicus, UniProt P21396).
T1 sequence (P21396 1-526): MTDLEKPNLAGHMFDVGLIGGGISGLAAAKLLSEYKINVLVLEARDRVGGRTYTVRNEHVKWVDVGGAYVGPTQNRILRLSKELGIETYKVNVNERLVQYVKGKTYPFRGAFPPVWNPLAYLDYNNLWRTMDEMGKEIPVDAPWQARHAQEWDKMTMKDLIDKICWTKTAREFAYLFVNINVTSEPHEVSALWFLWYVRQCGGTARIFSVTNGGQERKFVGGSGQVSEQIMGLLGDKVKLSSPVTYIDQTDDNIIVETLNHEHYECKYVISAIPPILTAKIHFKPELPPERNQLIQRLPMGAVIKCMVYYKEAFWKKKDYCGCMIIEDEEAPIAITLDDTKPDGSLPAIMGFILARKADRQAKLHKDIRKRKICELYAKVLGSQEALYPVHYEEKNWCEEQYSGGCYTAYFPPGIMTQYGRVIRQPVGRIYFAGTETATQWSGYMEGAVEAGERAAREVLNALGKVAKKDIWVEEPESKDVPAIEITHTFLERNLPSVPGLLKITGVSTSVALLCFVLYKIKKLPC
Briefly: CNS side effect panel, [^14C] - 5HT. It counts as biochemical.

Consider `N=C(N)c1ccc(OCCCCCOc2ccc(C(=N)N)cc2)cc1` [Pentamidine, 1,5-bis-4ρ-amidinophenoxypentane], for which affinity (Monoamine oxidase A, concentration-response) was put at a Ki of 217 nM. Besides, for the setting “pentamidine 1.0E^-5 M”, the “Percent Inhibition” value is given as 89.42%.

In general, Ki refers to a measure of affinity in units of concentration, obtained from inhibition or displacement.
